From patent US12497666B2, “Nucleic acid biomarker and use thereof” (Daiichi Sankyo Co., Ltd., priority 2013, dated 2025)

What was measured:
[1] = system: HT-29; experiment: Xenograft tumor growth inhibition by U3-1287, HT-29; format: in vivo; details: HT-29 xenograft in mice, Colon; tumor volumes vs control mice
Experimental: (§1) The HRG biomarker was identified by analysing the anti-tumor activity of the anti-HER3 antibody U3-1287 on various human cancer xenografts in vivo and analysis of the expression of HRG of these cell lines in vitro. Human tumor cell lines of various indications were grown as xenografts in mice and treated with the […] antibody U3-1287 for several weeks. Inhibition of tumor growth was analysed by comparing the tumor volumes of control mice and mice treated with U3-1287. Human tumor cell lines were grown in vitro and analysed for HRG RNA expression by PCR.

[2] = system: Calu-3; experiment: Xenograft tumor growth inhibition by U3-1287, Calu-3; format: in vivo; details: Calu-3 xenograft in mice, NSCLC; tumor volumes vs control mice
Experimental: as §1

[3] = system: HCC 1569; experiment: Xenograft tumor growth inhibition by U3-1287, HCC 1569; format: in vivo; details: HCC 1569 xenograft in mice, BC FISH + ve; tumor volumes vs control mice
Experimental: as §1

[4] = system: BT474; experiment: HER3 phosphorylation by Western blot, BT474; format: cell-based, human
Source text: FIG. 15 depicts Western blots showing that U3-1287 can block […] basal HER3 phosphorylation.

[5] = system: A549; experiment: Xenograft tumor growth inhibition by U3-1287, A549; format: in vivo; details: A549 xenograft in mice, NSCLC; tumor volumes vs control mice
Experimental: as §1

[6] = system: BxPC3; experiment: Xenograft tumor growth inhibition by U3-1287, BxPC3; format: in vivo; details: BxPC3 xenograft in mice, Pancreas; tumor volumes vs control mice
Experimental: as §1

[7] = system: MCF-7; experiment: Xenograft tumor growth inhibition by U3-1287, MCF-7; format: in vivo; details: MCF-7 xenograft in mice, BC FISH + ve; tumor volumes vs control mice
Experimental: as §1

[8] = system: ZR75-1; experiment: Xenograft tumor growth inhibition by U3-1287, ZR75-1; format: in vivo; details: ZR75-1 xenograft in mice, BC FISH + ve; tumor volumes vs control mice
Experimental: as §1

[9] = system: Sum225; experiment: Xenograft tumor growth inhibition by U3-1287, Sum225; format: in vivo; details: Sum225 xenograft in mice, BC FISH + ve; tumor volumes vs control mice
Experimental: as §1

[10] = system: NC-H1975; experiment: Xenograft tumor growth inhibition by U3-1287, NC-H1975; format: in vivo; details: NC-H1975 xenograft in mice, NSCLC; tumor volumes vs control mice
Experimental: as §1

[11] = system: MDA-MB453; experiment: Xenograft tumor growth inhibition by U3-1287, MDA-MB453; format: in vivo; details: MDA-MB453 xenograft in mice, BC FISH + ve; tumor volumes vs control mice
Experimental: as §1

[12] = Phase 1 monotherapy study of patritumab
Experimental: A higher maintenance dose level of 18 mg/kg was also included to accommodate the possible effect of reduced tumor tissue penetration in the clinical setting relative to animal models.

[13] = system: FaDu; experiment: Xenograft tumor growth inhibition by U3-1287, FaDu; format: in vivo; details: FaDu xenograft in mice, Head&Neck; tumor volumes vs control mice
Experimental: as §1

[14] = system: BT474; experiment: Xenograft tumor growth inhibition by U3-1287, BT474; format: in vivo; details: BT474 xenograft in mice, BC FISH + ve; tumor volumes vs control mice
Experimental: as §1

[15] = system: A375; experiment: Xenograft tumor growth inhibition by U3-1287, A375; format: in vivo; details: A375 xenograft in mice, Melanoma; tumor volumes vs control mice
Experimental: as §1

[16] = system: CaOV3; experiment: Reduction of phospho-HER3 and phospho-AKT levels by Western blotting, CaOV3; format: cell-based, human; details: CaOV3, no basal HER3 activation, stimulated with exogenous heregulin
Experimental: (§2) FIG. 14 depicts efficacy determined in vitro by measuring reduction of phospho-HER3 and phospho-AKT levels by Western blotting.
(§3) U3-1287 efficacy was determined in vitro by measuring reduction of phospho-HER3 and phospho-AKT levels.

[17] = system: HT-144; experiment: Xenograft tumor growth inhibition by U3-1287, HT-144; format: in vivo; details: HT-144 xenograft in mice, Melanoma; tumor volumes vs control mice
Experimental: as §1

[18] = system: A549; experiment: Reduction of phospho-HER3 and phospho-AKT levels by Western blotting, A549; format: cell-based, human; details: A549, endogenously express heregulin
Experimental: as §2, §3

[19] = system: MKN-45; experiment: Xenograft tumor growth inhibition by U3-1287, MKN-45; format: in vivo; details: MKN-45 xenograft in mice, Gastric; tumor volumes vs control mice
Experimental: as §1

[20] = system: NCI-H441; experiment: Xenograft tumor growth inhibition by U3-1287, NCI-H441; format: in vivo; details: NCI-H441 xenograft in mice, NSCLC; tumor volumes vs control mice
Experimental: as §1

patritumab: anti-HER3 antibody; U3-1287 corresponds to patritumab
In vivo efficacy (SA) [1]: Yes
In vivo efficacy (SA) [2]: Yes
In vivo efficacy (SA) [3]: No
efficacy on HER3 phosphorylation ([4]; BT474 HRG: exogenously added heregulin): this could be overcome by exogenously added heregulin
efficacy on HER3 phosphorylation ([4]; BT474 basal: basal HER3 phosphorylation, no heregulin expression): no efficacy
In vivo efficacy (SA) [5]: Yes
In vivo efficacy (SA) [6]: Yes
In vivo efficacy (SA) [7]: No
In vivo efficacy (SA) [8]: No
In vivo efficacy (SA) [9]: No
In vivo efficacy (SA) [10]: Yes
In vivo efficacy (SA) [11]: No
maximum tolerated dose ([12]; Phase 1 study): not reached
dose limiting toxicity ([12]; monotherapy Phase 1 study): lack of dose limiting toxicity
In vivo efficacy (SA) [13]: Yes
In vivo efficacy (SA) [14]: No
In vivo efficacy (SA) [15]: No
HER3 phosphorylation (phospho-HER3 and phospho-AKT levels) [16]: could be blocked
In vivo efficacy (SA) [17]: No
Basal HER3 phosphorylation (phospho-HER3 and phospho-AKT levels) [18]: Basal HER3 phosphorylation could be blocked
In vivo efficacy (SA) [19]: Yes
In vivo efficacy (SA) [20]: No
